# How the values were obtained:
# Type in all cases: cell-based, human
# [1] = system: nontumoral lung (MRC-5) cell line; experiment: MTT cytotoxicity assay, MRC-5; details: ± SD, 1.56-200 µM, nontumoral cells
# Experimental: (§1) DMSO solutions (10^−3 M) of the complexes (1–4) were subjected to molar conductance measurements at room temperature over 48 h, and the observed values are presented in Table S8. […] A comparative cytotoxicity assay explored the differences between nickel(II) complexes derived from thiosemicarbazone and dithiocarbazate ligands. Additionally, we investigated the influence of the coligands triphenylphosphine and pyridine in the complexes. The effectiveness of the compounds in inhibiting cell viability was concentration- and time-dependent. The analysis involved varying concentrations between 1.56 and 200 µM over 48 h using an MTT assay, with untreated cells serving as the control. Table 5 presents the IC50 values for the free ligands, synthesized complexes, and cisplatin, which served as reference compounds in this study.
# (§2) The cytotoxic activity of the synthesized compounds was evaluated against human cell lines, including breast cancer (MCF–7), cisplatin-resistant ovarian cancer (A2780cis), lung cancer (A549), and nontumor lung cells (MRC–5). The A549 and MRC-5 cell lines were cultured in Dulbecco’s Modified Eagle’s Medium (DMEM), while the MCF-7 and A2780cis cell lines were cultured in Roswell Park Memorial Institute (RPMI–1640). Both cultures were supplemented with 10% fetal bovine serum (FBS), penicillin (100 IU/mL), streptomycin ([…]), and L-glutamine (2 mM). The cells were grown as monolayers in disposable 25 cm^2 flasks and incubated at 37 °C in a humidified atmosphere containing 5% CO2.
# (§3) The cytotoxicity activity of the compounds was assessed using a colorimetric MTT (3-(4,5-dimethylthiazol-2-yl)-2,5-diphenyltetrazolium bromide) assay. The cells were trypsinized, counted, and adjusted to the appropriate concentration and were seeded into 96-well plates at a density of 1.5 × 10^4 cells/well. […] The absorbance was measured at 570 nm using a Varioskan LUX Multimode Microplate Reader (VL000D0, Waltham, MA 02451, USA). […] The half-maximal inhibitory concentration (IC50) values were determined from dose–response curves using GraphPad Prism version 8 software.
# [2] = system: breast cancer (MCF-7) cell line; experiment: MTT cytotoxicity assay, MCF-7; details: ± SD, 1.56-200 µM
# Experimental: as §1, §2, §3
# [3] = system: lung cancer (A549) cell line; experiment: MTT cytotoxicity assay, A549; details: ± SD, 1.56-200 µM
# Experimental: as §1, §2, §3
# [4] = system: cisplatin-resistant ovarian cancer (A2780cis) cell line; experiment: MTT cytotoxicity assay, A2780cis; details: 48 h, ± SD, 1.56-200 µM
# Experimental: as §1, §2, §3
Structure (SMILES),IC50 ([1]; 48 h) [µM],IC50 ([2]; 48 h) [µM],IC50 ([3]; 48 h) [µM],IC50 [4] [µM],"IC50 ([1]; Homo sapiens, MRC5, 48 h) [µM]","IC50 ([2]; Homo sapiens, MCF7, 48 h) [µM]","IC50 ([3]; Homo sapiens, A549, 48 h) [µM]","IC50 ([4]; Homo sapiens, A2780cis) [µM]"
"N.N.[Cl][Pt][Cl] [Cisplatin, cisplatin, reference compound]",29.1,14,11.5,37,,,,
"O=C(C/C(=N/NC(=S)Nc1ccccc1)C(F)(F)F)c1cccs1 [H2L^1, thenoyltrifluoroacetone–4–phenyl–3–thiosemicarbazone]",,,,,> 100,> 100,51.4,42.8
"O=C(C/C(=N/NC(=S)SCc1ccccc1)C(F)(F)F)c1cccs1 [H2L^2, thenoyltrifluoroacetone–S–benzyldithiocarbazate]",,,,,> 100,> 100,> 100,78.9

# Reference: PMC12430362, “Comparative Study of Ni(II) Complexes with Dithiocarbazate- and Thiosemicarbazone-Based Ligands: Synthesis, Crystal Structures, and Anticancer Activity” (Molecules, 2025)
